Legend:
[1] = system: GM2 expression in MIA PaCa-2 cells; assay: GM2 expression and cell clusters in three-dimensional culture with AMP-dNM or MAP kinase inhibitor; assay type: cell-based
Protocol: MIA PaCa-2 cells were cultured on ultra-low attachment plates at a concentration of 1.0×10^4 cells/well (24-well plate: Corning) for 7 days. Cell clusters were obtained. Therefore, the number of GM2-positive cells increased in three-dimensional culture. In this example, the effects of AMP-dNM or MAP kinase inhibitor on GM2 expression were examined. Under the same conditions as in Example 5, MIA PaCa-2 cells were three-dimensionally cultured, and the expression of GM2 was measured by adding AMP-dNM (10 μM) which is an inhibitor of glycolipid synthesis, or PD0325901 (1 μM) which is a MAP kinase inhibitor.

[2] = system: MIA PaCa-2 cells (GM2-positive vs GM2-negative); assay: sensitivity of GM2-expressing cells to anticancer drugs, proliferation rate by ATP assay; assay type: cell-based; details: drug at 10 μM or 100 μM, incubated 3 days, ATP assay (FIG. 6)
Protocol: In this example, the sensitivity of GM2-expressing cells to anticancer drugs (gemcitabine, fluorouracil [5-FU], and Abraxane) were examined.
MIA PaCa-2 cells (3.0×10^3 cells/well) were seeded in 96-well plates. After 1 day, each anticancer drug was added thereto at a concentration of 10 μM or 100 μM. The cells were incubated for 3 days, and the proliferation rate of the cells was measured by ATP assay.

[3] = AMP-dNM 10 μM, three-dimensional culture of MIA PaCa-2 cells (FIG. 8(B))

`OC[C@@H]1[C@@H](O)[C@H](O)[C@@H](O)CN1CCCCCOCC12CC3CC(CC(C3)C1)C2` [AMP-dNM, N-(5′-adamantane-1′-yl-methoxy)-pentyl-1-deoxynojirimycin] was tested, and the GM2 expression ([1]; AMP-dNM 10 μM, three-dimensional culture of MIA PaCa-2 cells (FIG. 8(A))) was “decreased”, the “microvilli in the cell clusters” value [1, 3] was “hardly observed” and the “vacuoles in the cell clusters” value [1, 3] was “conspicuously observed”.
For `O=C(NOC[C@H](O)CO)c1ccc(F)c(F)c1Nc1ccc(I)cc1F` [PD0325901], the GM2 expression ([1]; PD0325901 1 μM, three-dimensional culture of MIA PaCa-2 cells (FIG. 8(C))) was “decreased” and the “size of cell clusters” value ([1]; PD0325901 1 μM, three-dimensional culture of MIA PaCa-2 cells (FIG. 8(D))) was “clearly reduced”.
For `O=c1[nH]cc(F)c(=O)[nH]1` [fluorouracil [5-FU], fluorouracil], the “proliferation rate of GM2-positive cells compared with GM2-negative cells” value [2] was “effective against GM2-positive cells”.
`Nc1ccn([C@@H]2O[C@H](CO)[C@@H](O)C2(F)F)c(=O)n1` [gemcitabine] was tested, and the “proliferation rate of GM2-positive cells compared with GM2-negative cells” value [2] was “effective against GM2-positive cells”.

From patent US20240295560A1, “PANCREATIC CANCER DIAGNOSIS ASSISTANCE METHOD AND PHARMACEUTICAL COMPOUND FOR TREATING PANCREATIC CANCER” (TOKYO METROPOLITAN GERIATRIC HOSPITAL AND INSTITUTE OF …, priority 2020, published 2024)
